Assay results published in article PMC9005681, “Use of AD Informer Set compounds to explore validity of novel targets in Alzheimer's disease pathology” (Alzheimer's & Dementia : Translational Research & Clinical …, 2022).
Where “and” joins values, the source holds several entries; their conditions need not be identical. Identical values can stand only once.

Assays:
Assay in all cases: PDSP GPCR panel primary binding assays at 10 μM
[1] = target: T1, cloned human or rodent CNS receptors, channels, and transporters (PDSP panel) (Homo sapiens, UniProt P14416); conditions: D2, primary assay; for Mean %: mean inhibition; for Inhibition 1: replicate 1; for Inhibition 2: replicate 2; for Inhibition 3: replicate 3; for Inhibition 4: replicate 4
T1 construct: expressed in transfected cells
How it was run: (§1)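 Radioligand displacement at cloned human or rodent CNS targets: 46–47 primary binding assays run in quadruplicate at 10 μM. Targets where the compound displaced an average of >50% of radiolabeled standard ligand went to secondary binding in 11-point dose-response, in triplicate; none run for H3, PBR or GABAA.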

[2] = target: T2, cloned human or rodent CNS receptors, channels, and transporters (PDSP panel) (Homo sapiens, UniProt P23975); conditions: NET, primary assay; for Mean %: mean inhibition; for Inhibition 1: replicate 1; for Inhibition 2: replicate 2; for Inhibition 3: replicate 3; for Inhibition 4: replicate 4
T2 construct: expressed in transfected cells
How it was run: as §1

[3] = target: T3, cloned human or rodent CNS receptors, channels, and transporters (PDSP panel) (Homo sapiens, UniProt P25100); conditions: Alpha1D, primary assay; for Mean %: mean inhibition; for Inhibition 1: replicate 1; for Inhibition 2: replicate 2; for Inhibition 3: replicate 3; for Inhibition 4: replicate 4
T3 construct: expressed in transfected cells
T3 sequence (P25100 1-572): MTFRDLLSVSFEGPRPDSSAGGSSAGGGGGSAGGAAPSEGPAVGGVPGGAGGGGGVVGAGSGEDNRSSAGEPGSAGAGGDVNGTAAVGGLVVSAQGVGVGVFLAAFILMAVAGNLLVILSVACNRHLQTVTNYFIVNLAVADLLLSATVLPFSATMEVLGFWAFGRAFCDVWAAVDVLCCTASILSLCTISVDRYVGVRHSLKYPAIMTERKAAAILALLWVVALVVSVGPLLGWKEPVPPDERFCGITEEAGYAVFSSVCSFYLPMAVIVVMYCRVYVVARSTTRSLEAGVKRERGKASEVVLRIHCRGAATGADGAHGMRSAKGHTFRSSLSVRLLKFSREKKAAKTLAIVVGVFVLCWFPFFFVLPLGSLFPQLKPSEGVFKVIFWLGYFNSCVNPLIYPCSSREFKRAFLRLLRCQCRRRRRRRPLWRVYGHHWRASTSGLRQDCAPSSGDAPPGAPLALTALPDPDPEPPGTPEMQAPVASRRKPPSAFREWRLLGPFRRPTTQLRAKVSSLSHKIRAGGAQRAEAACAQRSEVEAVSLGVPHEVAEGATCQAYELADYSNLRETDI
How it was run: as §1

[4] = target: T4, cloned human or rodent CNS receptors, channels, and transporters (PDSP panel) (Homo sapiens, UniProt P28221); conditions: 5-HT1D, primary assay; for Mean %: mean inhibition; for Inhibition 1: replicate 1; for Inhibition 2: replicate 2; for Inhibition 3: replicate 3; for Inhibition 4: replicate 4
T4 construct: expressed in transfected cells
How it was run: as §1

[5] = target: T5, cloned human or rodent CNS receptors, channels, and transporters (PDSP panel) (Homo sapiens, UniProt P31645); conditions: SERT, primary assay; for Inhibition 1: replicate 1; for Inhibition 2: replicate 2; for Inhibition 3: replicate 3; for Inhibition 4: replicate 4
T5 construct: expressed in transfected cells
How it was run: as §1

[6] = target: T6, cloned human or rodent CNS receptors, channels, and transporters (PDSP panel) (Homo sapiens, UniProt P35367); conditions: H1, primary assay; for Mean %: mean inhibition; for Inhibition 1: replicate 1; for Inhibition 2: replicate 2; for Inhibition 3: replicate 3; for Inhibition 4: replicate 4
T6 construct: expressed in transfected cells
How it was run: as §1

[7] = target: T7, cloned human or rodent CNS receptors, channels, and transporters (PDSP panel) (Homo sapiens, UniProt P41595); conditions: 5-HT2B, primary assay; for Mean %: mean inhibition; for Inhibition 1: replicate 1; for Inhibition 2: replicate 2; for Inhibition 3: replicate 3; for Inhibition 4: replicate 4
T7 construct: expressed in transfected cells
How it was run: as §1

[8] = tested on: cloned human or rodent CNS receptors, channels, and transporters (PDSP panel); conditions: primary assay; for Mean %: mean inhibition; for Inhibition 1: replicate 1; for Inhibition 2: replicate 2; for Inhibition 3: replicate 3; for Inhibition 4: replicate 4
How it was run: as §1

T5 sequence (P31645 whole entry): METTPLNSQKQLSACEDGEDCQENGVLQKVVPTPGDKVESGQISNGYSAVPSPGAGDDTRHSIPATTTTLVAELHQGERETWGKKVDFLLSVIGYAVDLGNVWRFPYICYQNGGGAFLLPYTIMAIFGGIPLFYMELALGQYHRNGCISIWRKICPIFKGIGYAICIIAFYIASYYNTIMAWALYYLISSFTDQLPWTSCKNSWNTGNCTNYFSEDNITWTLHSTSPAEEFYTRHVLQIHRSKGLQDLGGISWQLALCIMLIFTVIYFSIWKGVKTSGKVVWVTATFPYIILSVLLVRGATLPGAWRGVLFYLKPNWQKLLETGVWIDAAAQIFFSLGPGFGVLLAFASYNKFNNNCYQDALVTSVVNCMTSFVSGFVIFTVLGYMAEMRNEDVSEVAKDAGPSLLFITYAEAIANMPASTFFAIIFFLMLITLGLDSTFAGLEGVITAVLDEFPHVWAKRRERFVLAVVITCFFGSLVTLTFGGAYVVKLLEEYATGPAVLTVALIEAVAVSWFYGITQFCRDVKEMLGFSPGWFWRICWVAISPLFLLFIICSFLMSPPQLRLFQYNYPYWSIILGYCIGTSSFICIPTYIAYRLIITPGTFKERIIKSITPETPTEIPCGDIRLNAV
T4 sequence (P28221 whole entry): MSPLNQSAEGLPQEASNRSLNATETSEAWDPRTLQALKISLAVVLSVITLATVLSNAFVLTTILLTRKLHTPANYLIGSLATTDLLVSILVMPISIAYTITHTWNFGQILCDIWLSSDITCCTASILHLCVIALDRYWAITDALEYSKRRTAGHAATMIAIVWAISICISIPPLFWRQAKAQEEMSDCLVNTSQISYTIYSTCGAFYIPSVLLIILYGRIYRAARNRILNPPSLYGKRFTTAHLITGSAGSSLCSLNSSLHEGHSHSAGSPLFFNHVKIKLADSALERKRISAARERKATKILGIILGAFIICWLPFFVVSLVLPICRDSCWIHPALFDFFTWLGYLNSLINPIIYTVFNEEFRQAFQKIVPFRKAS
T7 sequence (P41595 whole entry): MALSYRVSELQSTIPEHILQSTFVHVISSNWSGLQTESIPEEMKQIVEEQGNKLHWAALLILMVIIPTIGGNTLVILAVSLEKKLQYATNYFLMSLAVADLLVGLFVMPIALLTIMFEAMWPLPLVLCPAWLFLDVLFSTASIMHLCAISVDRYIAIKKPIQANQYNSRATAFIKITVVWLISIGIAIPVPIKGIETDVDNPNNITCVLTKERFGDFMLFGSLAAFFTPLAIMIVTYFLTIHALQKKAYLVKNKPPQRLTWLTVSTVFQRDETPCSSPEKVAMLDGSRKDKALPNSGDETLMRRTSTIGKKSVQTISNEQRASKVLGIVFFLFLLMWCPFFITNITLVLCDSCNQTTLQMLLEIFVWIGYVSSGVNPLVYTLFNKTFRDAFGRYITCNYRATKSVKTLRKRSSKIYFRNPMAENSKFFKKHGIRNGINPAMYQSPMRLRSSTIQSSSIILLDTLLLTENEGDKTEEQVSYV
T2 sequence (P23975 whole entry): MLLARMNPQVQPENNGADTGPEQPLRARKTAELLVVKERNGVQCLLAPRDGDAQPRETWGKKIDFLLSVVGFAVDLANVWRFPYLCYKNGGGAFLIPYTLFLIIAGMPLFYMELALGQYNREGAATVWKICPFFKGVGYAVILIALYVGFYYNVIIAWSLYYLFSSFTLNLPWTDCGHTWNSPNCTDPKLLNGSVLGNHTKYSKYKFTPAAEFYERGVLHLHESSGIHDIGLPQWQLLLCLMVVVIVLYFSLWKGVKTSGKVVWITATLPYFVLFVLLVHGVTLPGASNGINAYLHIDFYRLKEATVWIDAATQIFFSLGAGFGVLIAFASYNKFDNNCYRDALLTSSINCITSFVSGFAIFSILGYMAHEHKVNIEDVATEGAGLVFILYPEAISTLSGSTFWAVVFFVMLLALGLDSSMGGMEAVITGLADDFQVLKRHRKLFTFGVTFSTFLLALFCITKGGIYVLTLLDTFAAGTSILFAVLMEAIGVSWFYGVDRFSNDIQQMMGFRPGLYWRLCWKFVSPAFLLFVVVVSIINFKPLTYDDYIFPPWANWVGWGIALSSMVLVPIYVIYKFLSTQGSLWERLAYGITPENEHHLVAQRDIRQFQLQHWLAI
T6 sequence (P35367 whole entry): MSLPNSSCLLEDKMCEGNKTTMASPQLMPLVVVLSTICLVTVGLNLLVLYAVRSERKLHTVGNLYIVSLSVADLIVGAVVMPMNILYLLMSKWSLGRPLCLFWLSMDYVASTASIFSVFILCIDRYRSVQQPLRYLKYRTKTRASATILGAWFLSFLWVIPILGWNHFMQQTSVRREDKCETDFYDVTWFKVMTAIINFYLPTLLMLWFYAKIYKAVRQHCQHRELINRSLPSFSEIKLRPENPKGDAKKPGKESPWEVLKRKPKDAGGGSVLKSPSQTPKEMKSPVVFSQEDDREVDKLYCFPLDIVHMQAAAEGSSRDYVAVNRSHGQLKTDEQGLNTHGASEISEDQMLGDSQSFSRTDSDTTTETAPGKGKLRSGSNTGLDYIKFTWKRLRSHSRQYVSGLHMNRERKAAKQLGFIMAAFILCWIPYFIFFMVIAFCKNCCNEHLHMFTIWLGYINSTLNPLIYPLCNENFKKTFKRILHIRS
T1 sequence (P14416 whole entry): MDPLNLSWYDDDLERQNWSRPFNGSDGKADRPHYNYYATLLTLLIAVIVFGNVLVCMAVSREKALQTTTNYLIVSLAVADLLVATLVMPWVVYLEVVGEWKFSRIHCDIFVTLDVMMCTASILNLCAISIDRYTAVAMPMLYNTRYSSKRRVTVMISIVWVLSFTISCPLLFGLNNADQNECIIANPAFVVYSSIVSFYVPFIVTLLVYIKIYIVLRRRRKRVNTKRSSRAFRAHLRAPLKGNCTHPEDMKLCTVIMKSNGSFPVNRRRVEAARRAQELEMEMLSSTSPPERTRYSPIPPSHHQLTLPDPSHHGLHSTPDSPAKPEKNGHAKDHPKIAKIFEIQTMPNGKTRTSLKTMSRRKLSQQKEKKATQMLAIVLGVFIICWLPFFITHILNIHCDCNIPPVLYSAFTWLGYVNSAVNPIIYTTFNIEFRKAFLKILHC

CCC(=O)N1CCC(NC(=O)Nc2ccc(OC(F)(F)F)cc2)CC1 [UNC10302681A, TPPU]
Mean % [1]: -2.08% | Inhibition 1 [1]: 8.4% | Inhibition 2 [1]: -12.22% | Inhibition 3 [1]: -3.46% | Inhibition 4 [1]: -1.03% | Mean % [2]: 2.26% and 4.05% | Inhibition 1 [2]: -18.41% and 34.38% | Inhibition 2 [2]: -17.53% and 14.34% | Inhibition 3 [2]: 0.52% and -19% | Inhibition 4 [2]: 44.45% and -13.54% | Mean % [3]: -10.94% | Inhibition 1 [3]: -5.01% | Inhibition 2 [3]: -6% | Inhibition 3 [3]: -20.78% | Inhibition 4 [3]: -11.97% | Mean % [4]: 0.73% | Inhibition 1 [4]: 17.8% | Inhibition 2 [4]: -3.44% | Inhibition 3 [4]: -7.6% | Inhibition 4 [4]: -3.85% | Inhibition 1 [5]: 16.43% and 21.37% | Inhibition 2 [5]: -9.69% and 21.48% | Inhibition 3 [5]: 7.05% and 21.19% | Inhibition 4 [5]: 4.97% and 21.78% | Mean % [6]: 74.57% | Inhibition 1 [6]: 97.51% | Inhibition 2 [6]: 87.07% | Inhibition 3 [6]: 65.55% | Inhibition 4 [6]: 48.14% | Mean % [7]: 40.75% | Inhibition 1 [7]: 68.75% | Inhibition 2 [7]: 29.73% | Inhibition 3 [7]: 25.12% | Inhibition 4 [7]: 39.38% | Mean % ([8]; Alpha1A): -2.01% | Inhibition 1 ([8]; Alpha1A): 4.58% | Inhibition 2 ([8]; Alpha1A): -5.33% | Inhibition 3 ([8]; Alpha1A): -5.52% | Inhibition 4 ([8]; Alpha1A): -1.78% | Mean % ([8]; Alpha2A): -5.2% | Inhibition 1 ([8]; Alpha2A): -1.74% | Inhibition 2 ([8]; Alpha2A): -8.16% | Inhibition 3 ([8]; Alpha2A): -13.09% | Inhibition 4 ([8]; Alpha2A): 2.19% | Mean % ([8]; Alpha2C): -0.34% | Inhibition 1 ([8]; Alpha2C): 3.18% | Inhibition 2 ([8]; Alpha2C): -3.57% | Inhibition 3 ([8]; Alpha2C): 7.34% | Inhibition 4 ([8]; Alpha2C): -8.31% | Mean % ([8]; BZP Rat Brain Site): 9.51% | Inhibition 1 ([8]; BZP Rat Brain Site): 23.2% | Inhibition 2 ([8]; BZP Rat Brain Site): 7.09% | Inhibition 3 ([8]; BZP Rat Brain Site): 1.4% | Inhibition 4 ([8]; BZP Rat Brain Site): 6.33% | Mean % ([8]; DOR): -1.52% | Inhibition 1 ([8]; DOR): 6.89% | Inhibition 2 ([8]; DOR): -4.86% | Inhibition 3 ([8]; DOR): -4.68% | Inhibition 4 ([8]; DOR): -3.41% | Mean % ([8]; GABAA): -2.31% and -7.5% | Inhibition 1 ([8]; GABAA): 16.54% and 5.88% | Inhibition 2 ([8]; GABAA): -7.12% and -3.31% | Inhibition 3 ([8]; GABAA): -2.68% and -32.5% | Inhibition 4 ([8]; GABAA): -15.99% and -0.07% | Mean % ([8]; H3): 21.21% | Inhibition 1 ([8]; H3): 28.2% | Inhibition 2 ([8]; H3): 25.87% | Inhibition 3 ([8]; H3): 12.17% | Inhibition 4 ([8]; H3): 18.58% | Mean % ([8]; H4): -7.02% | Inhibition 1 ([8]; H4): -3.06% | Inhibition 2 ([8]; H4): -20.34% | Inhibition 3 ([8]; H4): -7.38% | Inhibition 4 ([8]; H4): 2.7% | Mean % ([8]; Sigma 1): 19.57% | Mean % ([8]; Sigma 2): 21.21%

CC(=O)N1CCC(NC(=O)NC23CC4CC(CC(C4)C2)C3)CC1 [UNC10302683A, AR9281]
Mean % [1]: -5.85% | Inhibition 1 [1]: -4.63% | Inhibition 2 [1]: -2.98% | Inhibition 3 [1]: -11.83% | Inhibition 4 [1]: -3.95% | Mean % [2]: 6.47% and 1.67% | Inhibition 1 [2]: -14.58% and 25.31% | Inhibition 2 [2]: -2.12% and 13.5% | Inhibition 3 [2]: 2.28% and -19.09% | Inhibition 4 [2]: 40.3% and -13.05% | Mean % [3]: -8.81% | Inhibition 1 [3]: 7.07% | Inhibition 2 [3]: -12.11% | Inhibition 3 [3]: -12.82% | Inhibition 4 [3]: -17.37% | Mean % [4]: 6.45% | Inhibition 1 [4]: 17.8% | Inhibition 2 [4]: 3.64% | Inhibition 3 [4]: 4.06% | Inhibition 4 [4]: 0.31% | Mean % ([5]; mean inhibition): -8.86% and -6.55% | Inhibition 1 [5]: -9.63% and -17.8% | Inhibition 2 [5]: -14.12% and -5.23% | Inhibition 3 [5]: -7.44% and -8.27% | Inhibition 4 [5]: -4.24% and 5.12% | Mean % [6]: 76.51% | Inhibition 1 [6]: 98.85% | Inhibition 2 [6]: 86% | Inhibition 3 [6]: 68.77% | Inhibition 4 [6]: 52.43% | Mean % [7]: -14.63% | Inhibition 1 [7]: 28.05% | Inhibition 2 [7]: -19.35% | Inhibition 3 [7]: -37.81% | Inhibition 4 [7]: -29.42% | Mean % ([8]; Alpha1A): -5.99% | Inhibition 1 ([8]; Alpha1A): 5.7% | Inhibition 2 ([8]; Alpha1A): -8.88% | Inhibition 3 ([8]; Alpha1A): -13.37% | Inhibition 4 ([8]; Alpha1A): -7.39% | Mean % ([8]; Alpha2A): -4.95% | Inhibition 1 ([8]; Alpha2A): 1.83% | Inhibition 2 ([8]; Alpha2A): 1.33% | Inhibition 3 ([8]; Alpha2A): -3.6% | Inhibition 4 ([8]; Alpha2A): -19.37% | Mean % ([8]; Alpha2C): -1.59% | Inhibition 1 ([8]; Alpha2C): 8.16% | Inhibition 2 ([8]; Alpha2C): -7.23% | Inhibition 3 ([8]; Alpha2C): -5.47% | Inhibition 4 ([8]; Alpha2C): -1.81% | Mean % ([8]; BZP Rat Brain Site): -1.68% | Inhibition 1 ([8]; BZP Rat Brain Site): -9.6% | Inhibition 2 ([8]; BZP Rat Brain Site): -7.42% | Inhibition 3 ([8]; BZP Rat Brain Site): 1.02% | Inhibition 4 ([8]; BZP Rat Brain Site): 9.27% | Mean % ([8]; DOR): -7.7% | Inhibition 1 ([8]; DOR): -16.42% | Inhibition 2 ([8]; DOR): -2.69% | Inhibition 3 ([8]; DOR): 0.93% | Inhibition 4 ([8]; DOR): -12.63% | Inhibition 1 ([8]; GABAA): 12.11% and 21.01% | Inhibition 2 ([8]; GABAA): 4.71% and -10.34% | Inhibition 3 ([8]; GABAA): 1.76% and -2.77% | Inhibition 4 ([8]; GABAA): 5.45% and -49.8% | Mean % ([8]; H3): 8.09% | Inhibition 1 ([8]; H3): 9.84% | Inhibition 2 ([8]; H3): -10.86% | Inhibition 3 ([8]; H3): 12.17% | Inhibition 4 ([8]; H3): 21.2% | Mean % ([8]; H4): -2.1% | Inhibition 1 ([8]; H4): -0.42% | Inhibition 2 ([8]; H4): -2.58% | Inhibition 3 ([8]; H4): -25.38% | Inhibition 4 ([8]; H4): 19.98% | Mean % ([8]; Sigma 1): 8.41% | Mean % ([8]; Sigma 2): -5.79%
